Experimental data from paper PMC12583094, “A novel antioxidant peptide from black soybean [Glycine max (L.) Merr.] with verified MPO interaction and multi-scale antioxidant activity” (Frontiers in Nutrition, 2025).

Experiments:
Format in all cases: cell-based, human
HaCaT cells [1] = conditions: 500 μg/mL H2O2 1 h, no peptide; CCK8, 450 nm; p < 0.0001 vs control; mean ± SD, n = 3
Experimental: HaCaT cell recovery, culture, and subculture were performed with reference to the method described by Yusha Zi et al., with some modifications ([23]). For recovery, cryopreserved HaCaT cells were retrieved from liquid nitrogen storage and quickly thawed in a 37 °C water bath with gentle shaking. Just before complete thawing, the tube was removed from the water bath, and the cell suspension was immediately transferred into a 15 mL centrifuge tube containing 9 mL of pre-warmed complete medium. The complete medium consisted of DMEM supplemented with 10% fetal bovine serum (FBS) and 1% penicillin–streptomycin (P/S). Cells were centrifuged at 800 rpm for 5 min at 4 °C. After discarding the supernatant, the cell pellet was resuspended in 5 mL of fresh complete medium and transferred to a culture flask equipped with a ventilated cap. Cells were incubated in a humidified incubator at 37 °C with 5% CO₂ and 95% humidity. For subculturing, when cell confluence reached approximately 80%, the medium was discarded, and the cells were gently rinsed three times with 2 mL of PBS. […] The plate was incubated for an appropriate period, and the absorbance at 450 nm was measured using a microplate reader. Cell viability was calculated using the following formula: Cell viability(%)=100%×(ODsample−ODblank)/(ODcontrol−ODblank). […] The absorbance was measured and cell viability was calculated under the same conditions.

HaCaT cells [2] = assay: CCK8 cell viability, concentration screening in HaCaT cells; conditions: 1 h
Experimental: HaCaT cell recovery, culture, and subculture were performed with reference to the method described by Yusha Zi et al., with some modifications ([23]). For recovery, cryopreserved HaCaT cells were retrieved from liquid nitrogen storage and quickly thawed in a 37 °C water bath with gentle shaking. Just before complete thawing, the tube was removed from the water bath, and the cell suspension was immediately transferred into a 15 mL centrifuge tube containing 9 mL of pre-warmed complete medium. The complete medium consisted of DMEM supplemented with 10% fetal bovine serum (FBS) and 1% penicillin–streptomycin (P/S). Cells were centrifuged at 800 rpm for 5 min at 4 °C. After discarding the supernatant, the cell pellet was resuspended in 5 mL of fresh complete medium and transferred to a culture flask equipped with a ventilated cap. Cells were incubated in a humidified incubator at 37 °C with 5% CO₂ and 95% humidity.
For subculturing, when cell confluence reached approximately 80%, the medium was discarded, and the cells were gently rinsed three times with 2 mL of PBS. Then, 1 mL of 0.25% trypsin solution was added, and the flask was incubated at 37 °C for about 1 min. Once the cells became round and partially detached (as observed under a microscope), 3 mL of complete medium was added to terminate the digestion. The cell suspension was gently pipetted to disperse the cells and transferred to a 15 mL centrifuge tube. After centrifugation at 800 rpm for 5 min at 4 °C, the supernatant was discarded. The pellet was resuspended in fresh medium and seeded into new culture flasks at a ratio of 1:3, followed by incubation under the same culture conditions.
After digestion and resuspension, HaCaT cells were seeded into a 96-well plate at a concentration of 1 × 10^^4 cells/ml, with 100 μL of complete culture medium added to each well. Three wells with no cells were treated with an equal volume of complete culture medium as the blank group. The cells were incubated for 24 h to allow attachment. For the experiment, the control and blank groups were replaced with an equal volume of fresh medium, while the treatment groups were treated with a concentration gradient of 100, 200, 500, 1,000, and 1,500 μg/mL H2O2 and peptide samples. The H2O2 group was incubated for 1 h, while the peptide sample group was incubated for 24 h. After incubation, the original medium was discarded, and 100 μL of CCK8 working solution (prepared from 90% DMEM + 10% CCK8 reagent) was added to each well. The blank group, which contained no cells, was used as the reference. The plate was incubated for an appropriate period, and the absorbance at 450 nm was measured using a microplate reader. Cell viability was calculated using the following formula:
Cell viability(%)=100%×(ODsample−ODblank)/(ODcontrol−ODblank).

HaCaT cells [3] = assay: ROS quantification in H2O2-treated HaCaT cells (DCFH-DA); conditions: 500 μg/mL H2O2 1 h, no peptide; DCFH-DA fluorescence 488/525 nm normalized per mg protein; p < 0.0001 vs control (541.25 ± 25.03 AU); mean ± SD, n = 3
Experimental: After digestion and resuspension, HaCaT cells were seeded into a 6-well plate at a concentration of 1 × 10^4 cells/ml, with 2 mL of culture medium added to each well. The cells were incubated for 24 h to allow attachment and adaptation. After 24 h, the cells were divided into treatment groups. The control and blank groups were replaced with an equal volume of normal culture medium, while the treatment group was incubated with a 1,000 μg/mL peptide solution for 24 h. After that, both the control and treatment groups were treated with 500 μg/mL H2O2 and incubated for an additional 1 h.
After incubation, the medium was discarded, and DCFH-DA probe was diluted in serum-free medium at a 1:1000 ratio. Then, 1.5 mL of the diluted solution was added to each well, and the cells were incubated at 37 °C in the dark for 20 min. The blank group was treated with an equal volume of serum-free medium. […] The fluorescence intensity was measured using a fluorescence spectrophotometer with an excitation wavelength of 488 nm and an emission wavelength of 525 nm. The total protein concentration of each sample was determined using the BCA method. The fluorescence value was then normalized to the fluorescence intensity per milligram of protein, and the results were statistically analyzed.

OO [H₂O₂, hydrogen peroxide]
HaCaT cell viability, H2O2 alone (HaCaT cells [1]): 47.82 ± 1.87%
effect on HaCaT cell viability at 200 μg/mL H2O2 (HaCaT cells [2]; H2O2 200 μg/mL, CCK8, vs control, p < 0.01): A significant reduction
HaCaT cell viability after 500 μg/mL H2O2 (screening) (HaCaT cells [2]; H2O2 500 μg/mL, CCK8, 450 nm, mean ± SD, n = 3): 49.05 ± 4.24%
dead HaCaT cells at 1500 μg/mL H2O2 (HaCaT cells [2]; H2O2 1500 μg/mL, CCK8, 450 nm): over 90%
ROS level, H2O2 alone (HaCaT cells [3]): 2128.33 ± 127.37 AU
